For series [1], the system named is ovariectomized rats. The series can be described thus: serum test (calcium, magnesium, potassium, sodium, phosphor) of ovariectomized rats fed with the test agents. The note with it: Comparison 2 (OVXC): ovariectomized rats, calcium citrate 0.5 g/kg, no liquid. On the procedure:
(§1) Owing to hormone variation, menopausal females lose their bones fast and suffer from osteoporosis easily. The rats used in the experiment groups, control group, and comparison groups are female Sprague-Dawley rats. The rats are fed with different proportions of the high-magnesium potable water beforehand. Then, the serum and tissue slices of the rats are analyzed.
(§2) The dosages of the high-magnesium concentrated liquid fed to the rats in experiment groups, control group and comparison groups are shown in Table.1. The unit of the dosage is milliliter or gram per kilogram of body weight. The control group is the group of unovariectomized rats. The supply of calcium citrate is to learn the influence of calcium on osteoporosis.

The test system of series [2] is ovariectomized rats. The series can be described thus: Micro-CT bone density and trabecula images of ovariectomized rats. Type of series: in vivo, female Sprague-Dawley rats. The settings on record: Comparison Group II, calcium citrate 0.5 g/kg, no liquid. On the procedure: as §1, §2
FIGS. 2A-2F are respectively the images of the bone densities of the rats of Experiment Group I, Experiment Group II, Experiment Group III, Control Group, Comparison Group I, and Comparison Group II. FIGS. 3A-3F are respectively the trabecula images of the rats of Experiment Group I, Experiment Group II, Experiment Group III, Control Group, Comparison Group I, and Comparison Group II.

The test system of series [3] is ovariectomized rats. The series can be described thus: serum test (ALP, BUN, CRE, GOT, GPT) of ovariectomized rats fed with the test agents. The settings on record: Comparison 2 (OVXC): ovariectomized rats, calcium citrate 0.5 g/kg, no liquid. As for the experimental part: as §1, §2

Take `O=C([O-])CC(O)(CC(=O)[O-])C(=O)[O-].O=C([O-])CC(O)(CC(=O)[O-])C(=O)[O-].[Ca+2].[Ca+2].[Ca+2]` [Calcium Citrate, calcium citrate]: in the series on ovariectomized rats [1], the Calcium in serum turned out to be 12.4 mg/dL, the Phosphor in serum was 8 mg/dL, the Potassium in serum stood at 5.8 mmol/L and the Sodium in serum was found to be 143 mmol/L. Moreover, the “bone density (Micro-CT images)” value with ovariectomized rats [2] (FIG. 2F) is listed as “lower bone density”. The “trabecula distribution (Micro-CT images)” value in the series on ovariectomized rats [2] (FIG. 3F) is recorded as “less compact trabecula distribution”. For the same compound, in the series with ovariectomized rats [3], the ALP in serum worked out at 130 U/L, the BUN in serum was 17 mg/dL, the CRE in serum is listed as 0.85 mg/dL and the GOT in serum was 75 U/L. In the series with ovariectomized rats [3], the GPT in serum came to 75 U/L.

These data come from patent US10647591B2, “High-magnesium concentrated liquid” (QUALITY PURE CO., LTD., priority 2016, dated 2020).
